Measurements reported in the supplement of paper PMC3937590.

Assays:
Assay in all cases: -log10 GI50 (growth inhibition 50%) (-log10(M)); higher = more potent growth inhibition
MDAMB157 = test system: MDAMB157
Procedure, shortened: (§1)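 Breast cancer cell lines were treated with each compound for 72 hours at nine doses in 1:5 serial dilution, in triplicate, and luminescence was read against a time-zero plate. A Gompertz curve was fitted to the dose-response data by nonlinear least squares to obtain GI50, the molar concentration giving the set level of growth inhibition, which is reported as its negative logarithm. The logarithm is base 10, and values equal to the top dose carry a < qualifier.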

HCC1419 = test system: HCC1419
Procedure, shortened: as §1

UACC812 = test system: UACC812
Procedure, shortened: as §1

HCC70 = test system: HCC70
Procedure, shortened: as §1

HCC1428 = test system: HCC1428
Procedure, shortened: as §1

MDAMB361 = test system: MDAMB361
Procedure, shortened: as §1

184A1 = test system: 184A1
Procedure, shortened: as §1

BT549 = test system: BT549
Procedure, shortened: as §1

LY2 = test system: LY2
Procedure, shortened: as §1

ZR75B = test system: ZR75B
Procedure, shortened: as §1

MCF12A = test system: MCF12A
Procedure, shortened: as §1

T47D_KBluc = test system: T47D_KBluc
Procedure, shortened: as §1

MX1 = test system: MX1
Procedure, shortened: as §1

HCC1954 = test system: HCC1954
Procedure, shortened: as §1

SUM52PE = test system: SUM52PE
Procedure, shortened: as §1

HCC1937 = test system: HCC1937
Procedure, shortened: as §1

MDAMB231 = test system: MDAMB231
Procedure, shortened: as §1

HCC2185 = test system: HCC2185
Procedure, shortened: as §1

184B5 = test system: 184B5
Procedure, shortened: as §1

SUM185PE = test system: SUM185PE
Procedure, shortened: as §1

| Structure (SMILES) | -log10 GI50 (MDAMB157) | -log10 GI50 (HCC1419) | -log10 GI50 (HCC1428) | -log10 GI50 (MDAMB361) | -log10 GI50 (BT549) | -log10 GI50 (T47D_KBluc) | -log10 GI50 (HCC1954) | -log10 GI50 (HCC1937) | -log10 GI50 (MDAMB231) | -log10 GI50 (HCC2185) | -log10 GI50 (UACC812) | -log10 GI50 (HCC70) | -log10 GI50 (184A1) | -log10 GI50 (LY2) | -log10 GI50 (ZR75B) | -log10 GI50 (MCF12A) | -log10 GI50 (MX1) | -log10 GI50 (SUM52PE) | -log10 GI50 (184B5) | -log10 GI50 (SUM185PE) |
| --- | --- | --- | --- | --- | --- | --- | --- | --- | --- | --- | --- | --- | --- | --- | --- | --- | --- | --- | --- | --- |
| CCCCCN(C)CCC(O)(P(=O)(O)O)P(=O)(O)O [Ibandronate sodium] | 4.36 | 5.12 | 3.89 | 4.83 | 4.53 | 3.92 | 4.26 | 4.53 | 4.21 | 4.92 | 3.83 | 4.2 | 3.81 | 3.9 | 3.84 | 3.73 | 3.94 | 4.47 | 3.62 |  |
| O=C(c1ccc(Nc2nccc(-c3cc4ccccc4s3)n2)cc1)N1CCC(N2CCCC2)CC1 [IKK 16] | 5.74 | 5.36 | 5.4 | 5.24 | 5.4 | 5.38 | 5.77 | 5.59 | 5.44 | 5.13 | 5.09 | 5.54 | 6.05 | 5.26 |  | 5.39 |  | 5.94 | 5.83 |  |
| COc1cc2ncnc(Nc3ccc(F)c(Cl)c3)c2cc1OCCCN1CCOCC1 [Gefitinib] | 4.92 | 5.5 | 4.97 | 5.03 | 4.86 |  | 5.92 | 5.08 | < 4.48 | 4.53 | 6.04 | 5.05 | < 4.48 | 4.62 | 4.67 | 6.17 |  | 5.1 | 7.43 | 5.11 |
| CCn1cc(-c2ccnc3[nH]c(-c4cccc(CN(C)C)c4)cc23)c(-c2ccc(NC(=O)N(C)C)cc2)n1 | 6.23 | 5.18 | 5.69 | 5.22 | 5.71 |  | 5.57 | 5.73 | 5.47 | 6.3 | 5.07 | 6.58 | 6.1 | 5.03 | 5.85 | 5.22 |  | 6.86 | 6.19 | 5.95 |
| O=c1[nH]cc(F)c(=O)[nH]1 [Fluorouracil] | 3.11 | 3.77 | 4.99 | 3.98 | 4.01 |  | 4.79 | 3.66 | 3.75 | 3.42 | 4.34 | 3.99 | 3.88 | 4.43 | 4.95 | 4.82 |  | 4.65 | < 1.72 | 2.53 |
| CCc1c2c(nc3ccc(OC(=O)N4CCC(N5CCCCC5)CC4)cc13)-c1cc3c(c(=O)n1C2)COC(=O)[C@]3(O)CC [CPT-11] | 5.43 | 4.62 | 4.64 | 5.25 | 5.47 |  | 4.72 | 5.14 | 5.06 | 5.5 | 5.49 | 4.97 | 5.44 | 4.88 | 5.82 | 5.79 |  | 5.87 | 5.66 | 4.99 |
| CCNCCCNC/C=C\CNCCCNCC | 2.96 | 4.85 | 3.74 | 3.15 | 4.73 |  | 6.52 | 5.24 | 4.75 | 3.39 | 3.47 | 5.9 | 3.2 | 2.9 | 3.61 | < 4 |  | 5.45 | 3.13 | < 3.3 |
| CC(=O)NCC(=O)N1[C@@H]2CC[C@H]1c1ccc(Nc3ncc(C(F)(F)F)c(NC4CCC4)n3)cc12 | 6.1 | 5.19 | 5.37 | 5.23 | 5.47 | 5.4 | 5.16 | 5.2 | 5.53 | 4.98 |  | 5.38 | 5.66 | 5.5 | 5.94 | 5.59 | 7 | 7.57 | 5.48 | 6.63 |
| COc1cc([C@@H]2c3cc4c(cc3[C@@H](O[C@@H]3O[C@@H]5CO[C@@H](C)O[C@H]5[C@H](O)[C@H]3O)[C@H]3COC(=O)[C@H]23)OCO4)cc(OC)c1O [Etoposide] | 6.02 | 4.18 | 4.47 | 4.85 | 5.89 | 5.79 | 6.01 | 5.34 | 5.69 | 5.11 |  | 4.89 | 5.08 | < 3.48 | 6.06 | 6.44 | 6.34 | 5.59 | 5.06 | 5.31 |
| O=C1c2ccccc2-[n+]2ccc3c([nH]c4ccccc43)c21 [Fascaplysin] | 6.77 | 6.58 | 7.43 | 7.09 | 6.28 | 7.31 | 6.57 | 6.41 | 6.6 | 6.9 |  | 6.9 | 6.4 | 8.1 | 6.39 | 6.45 | 6.53 | 6.74 | 6.53 | 7.26 |
| N.N.[Cl][Pt][Cl] [Cisplatin] | 4.62 | 4.91 | 4.33 | 5.06 | 5.6 |  | 5.29 | 5.48 | 4.65 | 5.71 | 5.48 | 5.8 | 5.53 | 5.11 | 4.06 | 4.18 |  | 5.78 | < 3.3 | 4.03 |
| COC1=C2C[C@@H](C)C[C@H](OC)[C@H](O)[C@@H](C)/C=C(\C)[C@H](OC(N)=O)[C@@H](OC)/C=C\C=C(/C)C(=O)NC(=CC1=O)C2=O [Geldanamycin] | 7.71 | 7.49 | 7.55 | 7.78 | 8.22 |  | 8.14 | 7.49 | 7.65 | 7.69 | 7.97 | 7.09 | 8.41 | 7.24 | 7.05 | 7.73 |  | 7.93 | 8.01 | 7.71 |
| C[C@@H](Oc1cc(-n2cnc3ccc(CN4CCN(C)CC4)cc32)sc1C(N)=O)c1ccccc1C(F)(F)F | 8.02 | 5.13 | 5.33 | 8.72 | 7.48 |  | 8.16 | 7.5 | 7.75 | 8.29 | 4.99 | 7.78 | 5.18 | 5.8 | 7.06 | 6.14 |  | 8.2 | 6.69 | 5.71 |
| CC(=O)O[C@@]12CO[C@@H]1C[C@H](O)[C@@]1(C)C(=O)[C@H](O)C3=C(C)[C@@H](OC(=O)[C@H](O)[C@@H](NC(=O)OC(C)(C)C)c4ccccc4)C[C@@](O)([C@@H](OC(=O)c4ccccc4)[C@H]21)C3(C)C [Docetaxel] | 8.76 | 7.8 | 7.77 | 7.92 | 8.46 | 7.93 | 8.78 |  | 8.66 | 8.52 | 8.39 | 8.49 | 6.13 | 8.2 | 8.03 | 8.59 |  | 8.67 | 8.39 | 6.4 |
| Oc1cc(-c2nc(-c3ccccc3)[nH]c2-c2ccncc2)ccc1Cl | 4.88 | 4.79 | 4.97 | 4.76 | < 4.48 |  | < 4.48 | 4.84 | 4.87 | < 4.48 | 4.9 | 4.49 | 5.06 |  | 4.51 | 4.97 | 4.98 | 5.13 | 5.45 | 5.19 |
| CC(C)C[C@H](NC(=O)[C@H](Cc1ccccc1)NC(=O)c1cnccn1)B(O)O [Bortezomib] | 8.16 | 8.86 | 7.28 | 5.54 | 8.21 | 6.52 | 8.13 | 8.1 | 7.66 | 8.35 |  | 8.6 | 8.18 | 6.46 | 7.53 | 7.39 | 8.06 | 8.28 | 8.33 | 8.27 |

Further lines, with some results ahead:

| -log10 GI50 (MDAMB157) | -log10 GI50 (HCC1419) | -log10 GI50 (HCC1428) | -log10 GI50 (MDAMB361) | -log10 GI50 (BT549) | -log10 GI50 (T47D_KBluc) | -log10 GI50 (HCC1954) | -log10 GI50 (HCC1937) | -log10 GI50 (MDAMB231) | -log10 GI50 (HCC2185) | Structure (SMILES) | -log10 GI50 (UACC812) | -log10 GI50 (HCC70) | -log10 GI50 (184A1) | -log10 GI50 (LY2) | -log10 GI50 (ZR75B) | -log10 GI50 (MCF12A) | -log10 GI50 (MX1) | -log10 GI50 (SUM52PE) | -log10 GI50 (184B5) | -log10 GI50 (SUM185PE) |
| --- | --- | --- | --- | --- | --- | --- | --- | --- | --- | --- | --- | --- | --- | --- | --- | --- | --- | --- | --- | --- |
| 7.12 | 7.24 | < 3.48 | 6.8 | < 3.48 | 6.57 | 8.07 | < 3.48 | < 3.48 | < 3.48 | CN(Cc1cnc2nc(N)nc(N)c2n1)c1ccc(C(=O)N[C@@H](CCC(=O)O)C(=O)O)cc1 [Methotrexate] |  | < 3.48 | 7.18 | 7.47 | < 3.48 | 5.22 | 7.82 | < 3.48 | 7.37 | < 3.48 |
| 8.27 | 7.04 | 7.58 | 7.79 | 8.16 | 7.84 | 8.15 | 7.81 | 8.37 | 8.22 | CC(=O)O[C@H]1C(=O)[C@@]2(C)[C@H]([C@H](OC(=O)c3ccccc3)[C@]3(O)C[C@H](OC(=O)[C@H](O)[C@@H](NC(=O)c4ccccc4)c4ccccc4)C(C)=C1C3(C)C)[C@]1(OC(C)=O)CO[C@@H]1C[C@@H]2O [Paclitaxel] | 8.08 | 8.03 | 7.35 | 7.97 | 7.38 | 7.97 |  | 8.2 | 7.74 | 6.64 |
| 5.21 | 4.72 | 5.29 | 4.92 | 5.29 | 5.12 | 5.26 | 5.16 | 5.44 | 4.7 | CCN(CC)CCNC(=O)c1c(C)[nH]c(/C=C2\C(=O)Nc3ccc(F)cc32)c1C [Sunitinib malate] |  | 5.6 | 5.37 | 5.14 |  | 5.19 | 5.27 | 5.94 | 5.28 | 5.98 |
| 7.5 | 5.18 | 5.37 | 7.46 | 7.34 | 6.79 | 7.52 | 6.56 | 7.5 | 7.53 | Cc1ccc(C(=O)N(CCCN)[C@@H](c2nc3cc(Cl)ccc3c(=O)n2Cc2ccccc2)C(C)C)cc1 [Ispinesib] |  | 7.34 | 5.84 | 6.06 | 6.89 | 7.25 | 7.92 | 7.54 | 6.05 | 6.96 |
| 5.95 | < 3.88 | 5.85 | 6 | 5.83 |  | 6.3 | < 3.88 | 5.98 | 6.31 | Cc1cc(C(=O)N2CCN(c3cccc(Cl)c3)CC2)n(-c2ccccc2)n1 [XRP44X] | 6.15 | 5.97 | 6.5 | 6.08 | 5.9 | 6.67 | 6.04 | 6.06 | 6.55 |  |
| 3.78 | 4 | 4.34 | 4.22 | 4.08 | 4.38 | 4.29 | 3.76 | 3.84 | 4.83 | CNC(=O)c1cc(Oc2ccc(NC(=O)Nc3ccc(Cl)c(C(F)(F)F)c3)cc2)ccn1 [Sorafenib] |  | 4.45 | 5.53 |  | 3.16 | 4.62 |  | 5.77 | 5.48 | 5.83 |
| < 3.78 | < 3.78 | 4.18 | < 3.78 | < 3.78 | < 3.78 | 4.11 | 4.37 | < 3.78 | 4.43 | CC(C)[C@H](CO)Nc1nc(Nc2cccc(Cl)c2)c2ncn(C(C)C)c2n1 [Purvalanol A] |  | < 3.78 | 4.62 |  | < 3.78 | 4.15 | < 3.78 | 4.79 | 5.52 | 4.69 |
